Like-named read-outs stand apart in the source and are kept apart here.
How the values were obtained:
[1] = target: human norepinephrine transporter (Homo sapiens (Human), UniProt P23975); test: Human NET (norepinephrine transporter) uptake assay; assay type: cell-based; conditions: read-out: hNET Ki
Procedure: This protocol was designed to measure inhibition of uptake by the human norepinephrine transporter. […] The Assay Buffer (AB) was 1×HBSS and 0.02 M HEPES.
(§1) The HEK293F cells were transfected with the human norepinephrine transporter and frozen in 1 mL aliquots at about 1E+07 cells/mL. On the day of the experiment, the cells were removed from −80° C. or liquid nitrogen and thawed in a room temperature water bath. The cells were dilute to about 1-2E+06 with Freestyle medium. A 1 mL sample (1:2 dilution) was prepared, and the cells were counted. The cells were spun at 1100 rpm for 5 minutes, and the medium was aspirated off. The cells were resuspend in medium at 1.5E+06 cells/mL for about 60,000 cells per well. 40 μL of cells were dispensed per well in the Biocoat plates. The plates were spun at 1100 rpm for 1 minute to improve homogeneity of the cell layer and were incubated at 37° C. for a minimum of 3 hours.
(§2) 12 μL of test compound (10 mM) in DMSO was added to the wells, and nomifensine was used as a control. […] The neurotransmitter transporter dye was prepared in AB prior to use.
(§3) Due to the proprietary nature of the dye formulation, all dye concentrations were expressed as a percentage of the vendor-recommended dye reconstitution. Thus, the above calculations were valid when both [dye] and Km were expressed in the same units (%). Compounds were tested in triplicate (n=3).

[2] = pKa of basic centres (Table 1); assay type: physicochemical
CYP3A4 = CYP3A4 (Homo sapiens (Human), UniProt P08684); test: Cytochrome P450 inhibition assay, recombinant CYP3A4 (BFC substrate); assay type: in vitro ADME; conditions: recombinant enzyme
[3] = target: human dopamine transporter (Homo sapiens (Human), UniProt Q01959); test: Human DAT (dopamine transporter) uptake assay; assay type: cell-based; conditions: read-out: hDAT Ki
Procedure: This protocol was designed to measure inhibition of uptake by the human dopamine transporter. […] The Assay Buffer (AB) was 1×HBSS and 0.02 M HEPES.
as §1, with “dopamine” for “norepinephrine”
as §2
Due to the proprietary nature of the dye formulation, all dye concentrations were expressed as a percentage of the vendor-recommended dye reconstitution. Thus, the above calculations were valid when both [dye] and K1 were expressed in the same units (%). Compounds were tested in triplicate (n=3).

CYP2D6 = CYP2D6 (Homo sapiens (Human), UniProt P10635); test: Cytochrome P450 inhibition assay, recombinant CYP2D6 (MAMC substrate); assay type: in vitro ADME; conditions: recombinant enzyme
Procedure: Recombinant enzymes, 3A4 and 2D6, generated using the ABL yeast expression system were used. […] The assay mixture also included K2HPO4 (pH 7.4; conc. 0.1 M) and NADPH (conc. 1 mM). The incubation time was 30 minutes, and the reference inhibitor was A-naphthoflavone. For CYP2D6, the enzyme amount was 2 pmol per well, and the substrate (7-methoxy-4-(aminomethyl)-coumarin; MAMC) was used at 20 μM. The assay mixture also included K2HPO4 (pH 7.4; conc. 0.1 M) and NADPH (conc. 0.06 mM). The incubation time was 35 minutes, and the reference inhibitor was quinidine.
Briefly, 0.6 μL of serially diluted compound was added to 75 μL water. 10 μL of diluted compound in water was then added to each assay plate. 20 μL of a K2HPO4, enzyme, and substrate mixture was added. After 10 minutes of room temperature pre-incubation, 10 μL of NADPH was added, and the plates were placed at 37° C. for 30 or 35 minutes depending on the enzyme being tested. After the incubation was complete, 20 μL of 0.1% Tris/ACN was added to the plate. The plate was read on a FluorStar fluorescence plate reader.

[4] = target: human serotonin transporter (Homo sapiens (Human), UniProt P31645); test: Human SERT (serotonin transporter) uptake assay; assay type: cell-based; conditions: read-out: hSERT Ki
Procedure: This protocol was designed to measure inhibition of uptake by the human serotonin transporter. […] The Assay Buffer (AB) was […] and 0.02 M HEPES.
as §1, with “serotonin” for “norepinephrine”
12 μL of test compound (10 mM) in DMSO was added to the wells, and nomifensine was used as a control. Fluoxetine (final assay concentration of 10 μM) was used for background signal. The neurotransmitter transporter dye was prepared in AB prior to use.
as §3

[5] = first base, e.g., an aliphatic primary, secondary, or tertiary amine, read-out: pKa (Base 1)
[6] = second base in the same molecule (if present), read-out: pKa (Base 2)

Chain of CYP3A4 (P08684 whole entry): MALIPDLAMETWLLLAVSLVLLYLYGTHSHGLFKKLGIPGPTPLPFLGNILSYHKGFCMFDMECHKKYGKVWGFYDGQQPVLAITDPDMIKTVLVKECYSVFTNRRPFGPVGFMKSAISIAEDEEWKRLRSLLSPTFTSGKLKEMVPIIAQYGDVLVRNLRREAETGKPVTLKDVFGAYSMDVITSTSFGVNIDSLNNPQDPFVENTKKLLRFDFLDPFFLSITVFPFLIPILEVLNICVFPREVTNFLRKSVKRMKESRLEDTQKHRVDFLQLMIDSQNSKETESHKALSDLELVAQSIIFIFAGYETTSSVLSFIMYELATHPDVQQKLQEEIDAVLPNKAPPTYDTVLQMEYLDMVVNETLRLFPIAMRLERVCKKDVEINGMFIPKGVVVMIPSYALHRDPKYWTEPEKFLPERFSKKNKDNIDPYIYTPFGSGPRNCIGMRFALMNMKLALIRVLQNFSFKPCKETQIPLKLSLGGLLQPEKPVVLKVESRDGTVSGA
Chain of human serotonin transporter (P31645 whole entry): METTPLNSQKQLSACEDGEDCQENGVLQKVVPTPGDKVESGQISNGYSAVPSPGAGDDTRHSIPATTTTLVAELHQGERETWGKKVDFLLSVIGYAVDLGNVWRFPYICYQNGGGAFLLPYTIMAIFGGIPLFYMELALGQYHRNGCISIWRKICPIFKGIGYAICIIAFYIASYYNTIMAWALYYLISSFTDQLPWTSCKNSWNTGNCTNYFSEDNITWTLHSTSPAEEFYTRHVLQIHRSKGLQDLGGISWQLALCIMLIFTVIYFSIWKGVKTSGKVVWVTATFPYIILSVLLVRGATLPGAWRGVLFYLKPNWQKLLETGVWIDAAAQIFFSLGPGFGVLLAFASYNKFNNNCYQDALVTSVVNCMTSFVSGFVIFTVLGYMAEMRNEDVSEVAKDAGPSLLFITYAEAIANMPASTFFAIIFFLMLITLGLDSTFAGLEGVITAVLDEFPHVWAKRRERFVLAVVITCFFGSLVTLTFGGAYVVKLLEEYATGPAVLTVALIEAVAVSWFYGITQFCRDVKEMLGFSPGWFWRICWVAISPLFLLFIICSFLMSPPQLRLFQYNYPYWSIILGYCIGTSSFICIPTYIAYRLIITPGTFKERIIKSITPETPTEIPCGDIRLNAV
Chain of human norepinephrine transporter (P23975 whole entry): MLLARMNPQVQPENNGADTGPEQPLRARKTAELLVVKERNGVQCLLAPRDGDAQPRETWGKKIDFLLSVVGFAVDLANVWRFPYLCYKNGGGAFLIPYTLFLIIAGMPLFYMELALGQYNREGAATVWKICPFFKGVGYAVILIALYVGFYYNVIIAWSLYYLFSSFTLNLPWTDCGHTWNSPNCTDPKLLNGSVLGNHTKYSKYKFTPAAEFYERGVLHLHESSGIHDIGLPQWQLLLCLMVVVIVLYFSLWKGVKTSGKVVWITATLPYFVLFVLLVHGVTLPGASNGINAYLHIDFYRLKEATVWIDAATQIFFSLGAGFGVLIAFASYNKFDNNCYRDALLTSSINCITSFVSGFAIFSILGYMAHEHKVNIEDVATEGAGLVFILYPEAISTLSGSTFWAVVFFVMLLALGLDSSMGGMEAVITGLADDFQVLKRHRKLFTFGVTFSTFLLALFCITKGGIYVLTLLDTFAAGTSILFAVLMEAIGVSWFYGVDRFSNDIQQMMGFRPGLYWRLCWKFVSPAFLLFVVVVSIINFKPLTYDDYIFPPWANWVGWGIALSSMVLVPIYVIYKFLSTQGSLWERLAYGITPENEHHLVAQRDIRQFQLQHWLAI
Chain of CYP2D6 (P10635 whole entry): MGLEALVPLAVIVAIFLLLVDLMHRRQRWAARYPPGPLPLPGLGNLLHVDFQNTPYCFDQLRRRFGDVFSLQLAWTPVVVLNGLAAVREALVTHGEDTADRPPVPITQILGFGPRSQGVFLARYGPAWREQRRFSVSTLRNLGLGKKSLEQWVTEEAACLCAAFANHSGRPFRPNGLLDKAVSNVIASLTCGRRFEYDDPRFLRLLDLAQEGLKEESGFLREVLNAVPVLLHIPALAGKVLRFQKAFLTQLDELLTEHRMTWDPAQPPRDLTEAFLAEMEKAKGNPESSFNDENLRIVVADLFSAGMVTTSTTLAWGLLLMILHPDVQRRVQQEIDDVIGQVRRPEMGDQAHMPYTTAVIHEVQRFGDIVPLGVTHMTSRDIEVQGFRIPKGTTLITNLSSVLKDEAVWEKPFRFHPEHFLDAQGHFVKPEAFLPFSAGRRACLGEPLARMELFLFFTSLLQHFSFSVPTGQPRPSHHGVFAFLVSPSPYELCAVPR
Chain of human dopamine transporter (Q01959 whole entry): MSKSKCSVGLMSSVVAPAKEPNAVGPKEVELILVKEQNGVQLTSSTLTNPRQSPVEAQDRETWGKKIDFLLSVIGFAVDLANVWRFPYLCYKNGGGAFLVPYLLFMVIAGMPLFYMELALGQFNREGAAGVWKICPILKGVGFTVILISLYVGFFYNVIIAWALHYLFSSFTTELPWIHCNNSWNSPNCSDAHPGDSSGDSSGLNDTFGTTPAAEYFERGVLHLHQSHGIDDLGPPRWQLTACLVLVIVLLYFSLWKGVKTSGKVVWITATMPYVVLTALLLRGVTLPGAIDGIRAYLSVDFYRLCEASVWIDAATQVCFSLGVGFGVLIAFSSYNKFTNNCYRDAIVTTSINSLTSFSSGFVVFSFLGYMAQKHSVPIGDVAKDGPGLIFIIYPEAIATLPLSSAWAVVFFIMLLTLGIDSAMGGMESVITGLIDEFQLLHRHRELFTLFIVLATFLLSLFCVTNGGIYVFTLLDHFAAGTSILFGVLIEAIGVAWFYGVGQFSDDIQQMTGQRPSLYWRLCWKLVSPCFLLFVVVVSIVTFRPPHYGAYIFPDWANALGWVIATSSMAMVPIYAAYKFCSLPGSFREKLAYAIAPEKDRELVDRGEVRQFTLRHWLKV

Structure (SMILES)	Ki [1]	pKa [2, 5]	IC50 (CYP3A4)	Ki [3]	IC50 (CYP2D6)	Ki [4]	pKa [2, 6]	pKa (Base 1) ([2]; first base, e.g., an aliphatic primary, secondary, or tertiary amine)
CNC[C@H](c1ccc(Cl)c(Cl)c1)[C@H](O)c1cccc([N+](=O)[O-])c1 [Compound 102]	55.2 nM	9.3	5700 nM	29.3 nM	120 nM	86.2 nM		
CN1CO[C@H](c2ccccc2)[C@@H](c2ccc3ccccc3c2)C1 [Compound 4]	1.4 nM	6.6	20000 nM	10.9 nM	300 nM	2.5 nM		
CNCC(Cc1ccccc1)c1ccc2cccnc2c1 (centres unmarked) [Compound 75]	10.4 nM	10	16000 nM	505 nM	560 nM	2.1 nM	4.8	
CNC[C@@H](c1ccc(Cl)c(Cl)c1)[C@@H](O)c1cccc(N)c1 [Compound 119]	257 nM	9.4	7900 nM	75.5 nM	4100 nM	1780 nM	4.3	
CN1CCO[C@@H](c2ccccc2)[C@H](c2ccc3ccccc3c2)C1 [Compound 124]	338 nM	8.2		15.3 nM	3000 nM	167 nM		
CNCC(c1ccc2ccccc2c1)[C@@H](O)c1ccc(Cl)nc1 (some centres unmarked) [Compound 169]	212 nM	9.6	20000 nM	146 nM	1300 nM	268 nM		
CNC[C@H](c1ccc(Cl)c(Cl)c1)[C@@H](O)c1ccccc1I [Compound 152]	126 nM	9.4	2000 nM	31.8 nM	44 nM	935 nM		
CNC[C@H](c1ccc(Cl)c(Cl)c1)[C@H](O)c1cccc(N)c1 [Compound 24]	2.2 nM	9.4	20000 nM	21.9 nM	1400 nM	71.4 nM	4.3	
CNC[C@@H](c1ccc(Cl)c(Cl)c1)[C@@H](O)c1cccc(N(C)C)c1 (single isomer, unassigned) [Compound 108]	88.5 nM	9.5	≥ 20000 nM	57.1 nM	2200 nM	754 nM	4.9	
CNC[C@@H](c1ccc(Cl)c(Cl)c1)[C@@H](O)c1cccc(NS(=O)(=O)C(F)(F)F)c1 [Compound 121]	270 nM	9.4	20000 nM	5 nM	20000 nM	2850 nM		
O[C@@H](c1ccccc1)[C@@H](CNCC(F)(F)F)c1ccc2ccccc2c1 (single isomer, unassigned) [Compound 130]	4570 nM	4.6		87.3 nM	3700 nM	3370 nM		
CNC[C@H](c1ccc(Cl)c(Cl)c1)[C@H](O)c1cccc(N(C)C)c1 (single isomer, unassigned) [Compound 168]	89.3 nM	9.5	4600 nM	144 nM	780 nM	178 nM	4.9	
CNC[C@H](c1ccc(Cl)c(Cl)c1)[C@@H](O)c1cccc(N)c1 [Compound 63]	6.7 nM	9.4	8300 nM	78.2 nM	2800 nM	853 nM	4.3	
CN1CCO[C@@H](c2ccccc2)[C@@H](c2ccc3ccccc3c2)C1 [Compound 123]	290 nM	8.2		379 nM	6600 nM	12 nM		
CNC[C@H](c1ccc(Cl)c(Cl)c1)[C@H](O)c1ccncc1 (racemic) [Compound 155]	17.8 nM	9.3	≥ 20000 nM	46.6 nM	1400 nM	73.7 nM	5.3	
CNC[C@@H](c1ccc(Cl)c(Cl)c1)[C@@H](O)c1cccc(OC)n1 [Compound 157]	88.4 nM	9.2	20000 nM	53.4 nM	580 nM	140 nM		

Structure (SMILES)	Ki [1]	pKa [2, 5]	IC50 (CYP3A4)	Ki [3]	IC50 (CYP2D6)	Ki [4]	pKa [2, 6]	pKa (Base 1) ([2]; first base, e.g., an aliphatic primary, secondary, or tertiary amine)
CNC[C@H](c1ccc2ccccc2c1)[C@H](O)c1cc(F)cc(F)c1 (racemic) [Compound 41]	3.2 nM	9.6	19000 nM	10.6 nM	130 nM	52.5 nM		
CNC[C@@H](c1ccc2ccccc2c1)[C@@H](OCC(N)=O)c1ccccc1 [Compound 117]	236 nM	9.6	20000 nM	12.9 nM	5500 nM	796 nM		
CNC[C@H](c1ccc2ccccc2c1)[C@@H](O)c1cc(F)cc(F)c1 [Compound 141]	32.6 nM	9.6	20000 nM	91.9 nM	370 nM	296 nM		
CNC[C@H](c1ccc(Cl)c(Cl)c1)[C@@H](O)c1cccc(Br)c1 [Compound 161]	38.5 nM	9.4	9200 nM	103 nM	160 nM	616 nM		
CNC[C@H](c1ccc2ccccc2c1)[C@H](OCC(=O)NCC(F)(F)F)c1ccccc1 [Compound 68]	8.4 nM	9.6		55.5 nM		29.7 nM		
CNCC(CCc1ccccc1)[C@@H](O)c1ccccc1 (some centres unmarked) [Compound 147]	45.7 nM	10.1		121 nM		800 nM		
CNC[C@H](c1ccc2ccccc2c1)[C@H](O)c1cc(F)cc(F)c1 (single isomer, unassigned) [Compound 37]	3 nM	9.6		63.6 nM		54.6 nM		
CNC[C@H](c1ccc(Cl)cc1)[C@H](O)c1ccccc1 (racemic) [Compound 148]	8.5 nM	9.7		114 nM		191 nM		
CNCC(CCc1ccccc1)[C@@H](O)c1ccccc1 (some centres unmarked) [Compound 27]	2.3 nM			96.7 nM		252 nM		10.1
CNC[C@H](c1ccc2ccccc2c1)[C@H](OCc1cccc(=O)n1C)c1ccccc1 [Compound 79]	14.4 nM	9.7		73.3 nM		6.4 nM		
CNC[C@H](c1ccc2ccccc2c1)[C@H](OCc1cccn(C)c1=O)c1ccccc1 [Compound 31]	2.4 nM	9.6		24.6 nM		1.9 nM		
CNC[C@H](c1ccc2ccccc2c1)[C@@H](O)c1ccncc1Cl [Compound 7]	1.4 nM	9.5		6.6 nM		3.6 nM	3	
CNC[C@H](c1ccc2ccccc2c1)[C@H](OCc1nc(C(=O)OC)co1)c1ccccc1 [Compound 84]	16.2 nM	9.6		39.2 nM		3.3 nM		
CN1C[C@H](c2ccc3ccccc3c2)[C@@H](c2ccccc2)OCC1=O [Compound 129]	3670 nM		20000 nM	43.5 nM	20000 nM	3370 nM		
CNCC(c1ccc2ccccc2c1)C(OC)c1ccccc1 (centres unmarked) [Compound 38]	3.1 nM	9.7		49.9 nM		16.9 nM		
